Experiment in all cases: inhibition of tumour cell growth, NCI panel, 48 h
Test [1] deals with SK-MEL-28 melanoma.
For test [2], the system named is OVCAR-5 ovarian.
For test [3], the system named is SK-OV-3 ovarian.
The subject of test [4] is TK-10 renal.
Test [5] concerns NCI-H522 lung.
Test [6] concerns MALME-3M melanoma.
In test [7] the test system is HOP-62 NSCLC.
The subject of test [8] is HCT-116 colon.
Test [9] deals with UO-31 renal.

Values joined by “and” are separate entries in the source; they are usually repeats but may differ in a detail not shown here. Equal entries are not always repeated.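 Tested at 5 concentrations; 48 h exposure; 96-well plates; endpoints linearly interpolated, else capped at highest concentration. At the GI50, growth is halved. TGI marks complete inhibition of growth.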

Results on 28 molecules are retold here after PubChem BioAssay (NCI).

Turning to `CC12OC3CC(O1)C1(C=O)C4CCC5(C)C(c6ccc(=O)oc6)CCC5(O)C4CCC1(C3)O2` (stereo not given), the TGI amounted to 1.49 µM in [1]; 1.19 µM in test [2]; 0.513 µM in [3]; 0.472 µM in test [4]; 0.317 µM in [5]; 0.51 µM in test [6]. The values for the TGI in test [7], in test [8] and in test [9] were 0.348 µM, 0.399 µM and 0.97 µM, respectively.

As to `O=C(Nc1cc(Cl)c(Cl)cc1Cl)C(=O)C(C(=O)c1ccc2ccccc2c1)C1OC(=O)c2ccccc21` (stereo not given), the TGI was 22.1 µM in test [1]; 31.9 µM in test [2]; above 100 µM in test [3]; 26.9 µM in test [5]; 30.9 µM in test [6]; 43.5 µM in test [7]. For the same molecule, the results for the TGI in test [8] and in [9] were 34.6 µM and 33.5 µM, respectively.

In the case of `O=C1C2Nc3ccccc3SC2C(=O)N1c1cccc([N+](=O)[O-])c1` (stereo not given), the TGI in test [1], in test [2], in [3], in test [4], in test [5] and in [6] was above 100 µM throughout. For the same molecule, the TGI in [7], in test [8] and in test [9] was above 100 µM in each case.

`Cc1cc(C)c2[s+]snc2c1`: the TGI in test [1] was above 100 µM; in test [2] it was above 100 µM; in test [3], above 100 µM; in test [4] it was above 100 µM; in test [5], 77.6 µM; in test [6], above 100 µM. Further, the TGI in test [7], in test [8] and in test [9] was above 100 µM in each case.

Turning to `CCc1oc2ccc(OC)c3c2c1C=CC=C3`, the TGI in test [1], in test [2], in [3], in [4], in test [5] and in [6] was above 100 µM throughout. The TGI in [7] and in test [9] was above 100 µM in each case.

Turning to `CCC[CH2][Sn]1([CH2]CCC)[O]C(=O)c2cc(C)ccc2[O]1`, the GI50 in test [1] is 0.682 µM; in [2] it was 1.66 µM; in test [3], 1.58 µM; in [4], 0.385 µM; in test [5], 0.0859 µM; in test [6] it was 0.112 µM. The GI50 was 1.12 µM in test [8] and 1.19 µM in test [9]. In addition, the TGI was 2.03 µM in [1]; 3.04 µM in [2]; 2.99 µM in test [3]; 1.18 µM in test [4]; 0.232 µM in [5]; 0.938 µM in test [6]. Moreover, the figures for the TGI in test [8] and in test [9] were 2.33 µM and 2.45 µM, respectively.

As for `CC(C)c1cccc(C(C)C)c1NC1=CC(=O)C(=O)c2ccccc21`, the TGI in [1], in [2], in test [3], in test [4], in [5] and in test [6] was above 100 µM each time. The TGI in test [7], in test [8] and in [9] was above 100 µM throughout.

Turning to `CC(C)[O-].CC(C)[O-].[O-]c1cccc2cccnc12.[O-]c1cccc2cccnc12.[Ti+4]`, the GI50 in [1] is 56.5 µM; in test [2], 51.1 µM; in [3], above 100 µM; in test [4] it was 34.4 µM; in test [5] it was 1.41 µM and 1.93 µM; in test [6], 25.7 µM. The GI50 in test [7] is above 100 µM; in test [8], 3.24 µM and 3.87 µM; in test [9], above 100 µM. The TGI was above 100 µM in test [1]; above 100 µM in test [2]; above 100 µM in [3]; above 100 µM in test [4]; 2.84 µM and 5.68 µM in test [5]; above 100 µM in test [6]. The TGI in test [7], in [8] and in [9] was above 100 µM throughout.

`OC1C2C=CCC1CCC2` (stereo not given): the TGI in test [1], in [2], in test [3], in test [4], in [5] and in test [6] was above 100 µM in each case. In addition, the TGI in [7], in [8] and in test [9] was above 100 µM each time.

As for `CCOC(=O)CNC(=O)C(CSC(=O)N(C)O)NC(=O)CCC(N)C(=O)O` (stereo not given), the GI50 in test [1], in [3], in test [4], in test [5], in test [6] and in test [7] was above 2000 µM throughout. In addition, the GI50 in test [8] and in test [9] was above 2000 µM in each case. Besides, the TGI in [1], in [3], in test [4], in test [5], in test [6] and in test [7] was above 2000 µM throughout. Besides, in test [9], the TGI was above 2000 µM.

Take `C[C@]12CCCC(=O)C1C[C@H](C(=O)O)CC2` (stereo not given in full): the TGI in test [1], in [2], in test [3], in [4], in test [5] and in test [6] was above 100 µM in each case. Besides, the TGI in test [7], in test [8] and in test [9] was above 100 µM in each case.

As to `CCOC(=O)C1CC/C(=C(/C#N)C(=O)OC)N1` (stereo not given), the TGI in test [1], in test [3], in [4], in test [5], in test [7] and in test [8] was above 100 µM in each case. Also, the TGI in test [9] is above 100 µM.

As for `NNC(=S)N/N=C/C(Cl)=C(\Cl)C(=O)O`, the TGI in [1], in [2], in test [4], in test [5], in [6] and in test [8] was above 100 µM in each case. Besides, the TGI in test [9] was above 100 µM.

On to `O=[N+]([O-])c1cc(/C=N/NS(=O)(=O)c2ccc(F)cc2)c(O)c([N+](=O)[O-])c1`, for which the TGI in test [1] was above 100 µM; in test [2] it was above 100 µM; in test [3], 78.3 µM; in test [4] it was above 100 µM; in [5] it was 46.3 µM; in test [6] it was above 100 µM. The TGI in test [7], in test [8] and in [9] was above 100 µM throughout.

In the case of `Cc1cc2c(cc1C)[n+]([O-])c(-c1c(Cl)cccc1Cl)c(N)[n+]2[O-]`, the TGI in [1] was 89.6 µM; in test [2], above 100 µM; in test [3] it was above 100 µM; in test [4] it was above 100 µM; in [5], 28 µM; in test [6], 92.3 µM. Also, the TGI turned out to be 96.8 µM in test [7] and 88.8 µM in test [9].

For the molecule `Nn1c(N=Nc2c(O)[nH]c3ccccc23)n[nH]c1=S`, the TGI in test [1], in test [2], in test [3], in [4], in [5] and in test [6] was above 100 µM each time. Moreover, the TGI in test [7], in [8] and in test [9] was above 100 µM throughout.

In the case of `CCOc1ccc(NC(=O)CCC(=O)NN)cc1`, the TGI in test [1], in [2], in test [4], in [5], in test [6] and in test [7] was above 100 µM throughout. Further, the TGI in test [9] was above 100 µM.

Regarding `O=C1CCC(=O)C(C(=O)CCC(=O)Nc2cccc(Cl)c2)C1` (stereo not given), the TGI in test [2], in test [3], in test [4], in [5], in test [6] and in test [7] was above 100 µM throughout. The TGI in test [8] and in [9] was above 100 µM in each case.

For `CCN(CC)c1ccc2nc3c4ccccc4c(=NC(=O)c4ccccc4-c4c5ccc(N(CC)CC)cc5[o+]c5cc(N(CC)CC)ccc45)cc-3oc2c1`, the GI50 in test [1] was 5.06 µM; in [2], 3.23 µM; in [3], 12.3 µM; in test [4], 10.3 µM; in [5], 3.14 µM; in [6] it was 2.92 µM. For the same molecule, the GI50 is 1.81 µM in test [7], 1.88 µM in [8] and 1.49 µM in [9]. In addition, the TGI in [1] was 12.4 µM; in test [2], 11.9 µM; in [3], 26.6 µM; in [4], 31.5 µM; in test [5], 21.9 µM; in [6], 10.2 µM. The TGI in test [7] is 4.53 µM; in test [8], above 22.4 µM; in test [9], 15 µM.

Regarding `CC(C)(C)C(=O)[CH-]C(=O)C(F)(F)C(F)(F)C(F)(F)F.CC(C)(C)C(=O)[CH-]C(=O)C(F)(F)C(F)(F)C(F)(F)F.[O-]CC1OC(O)C(O)C(O)C1O.[O-]CC1OC(O)C(O)C(O)C1O.[Ti+4]`, the TGI in [1], in test [2], in test [3], in test [4], in test [6] and in test [7] was above 100 µM throughout. For the same molecule, the TGI in test [8] and in test [9] was above 100 µM in each case.

On to `CCOC(=O)C1(Cc2ccc3ccccc3c2)CCCCCN1` (stereo not given), for which the TGI in test [1] was 88.9 µM; in test [3] it was above 100 µM; in test [4] it was above 100 µM; in test [6], 33.9 µM; in test [7] it was above 100 µM; in [9], 82.1 µM.

Consider `CP(C)C.[Ag][I]`, for which the TGI in [1], in test [2], in [3], in [4], in test [6] and in test [7] was above 100 µM each time. Moreover, the TGI in test [8] and in test [9] was above 100 µM throughout.

`Cc1nc(N)sc1C(=O)/C=C/c1ccc([N+](=O)[O-])cc1`: the TGI in [1], in test [2], in test [3], in [4], in [5] and in test [6] was above 100 µM in each case. In addition, the TGI in test [7] and in test [9] was above 100 µM each time.

Consider `C=C1CC(C/C=C(\C)CC2CC(=C)C(=O)O2)OC1=O` (stereo not given), for which the TGI in [1], in [2], in [3], in [4], in [6] and in test [7] was above 100 µM in each case. Further, the TGI in test [8] and in test [9] was above 100 µM throughout.

With `N#CC12Cc3ccc4c(c3-c3cccc(c31)CCN2C(=O)c1ccccc1)OCO4` (stereo not given), the TGI in test [1], in test [2], in test [3], in test [4], in [6] and in test [7] was above 100 µM throughout. The TGI in [8] and in test [9] was above 100 µM throughout.

As for `CCOC(=O)C(Cc1ccc(OC)cc1)C(=O)OCC`, the GI50 in [2] is 11.4 µM; in test [3], 10.7 µM; in [4] it was 8.22 µM; in test [5], 2.53 µM; in [6], 9.94 µM; in test [7], 9.51 µM. Moreover, the GI50 in [8] was 4.45 µM; in test [9], 5.63 µM. The TGI in test [2] came to 24.2 µM; in test [3], 55.8 µM; in test [4], 26.2 µM; in test [5] it was 8.73 µM; in test [6], 28 µM; in test [7] it was 22.6 µM. The figures for the TGI in test [8] and in test [9] were 15.6 µM and 19.7 µM, respectively.

As for `Cc1cccc(N=C2NC(=O)C(CC(=O)Nc3ccc(Cl)cc3C)S2)c1` (stereo not given), the TGI in test [1], in test [2], in [3], in test [4], in test [5] and in test [6] was above 100 µM in each case. In addition, the TGI in test [7] and in test [9] was above 100 µM each time.

On to `Cc1cc(=O)[nH]c(CNC(=O)Cc2ccccc2)n1`, for which the TGI in [1], in test [2], in test [3], in test [4], in test [5] and in [6] was above 100 µM throughout. The TGI in test [7] and in test [9] was above 100 µM throughout.
